How the values were obtained:
[1] = system: HCT-116; assay: Cytotoxicity against human HCT116 cells assessed as growth inhibition after 72 hrs by phosphatase assay; format: functional, cell-based; settings: HCT-116, 72 h
[2] = system: L1210; assay: Cytotoxicity against mouse L1210 cells assessed as growth inhibition after 72 hrs by phosphatase assay; format: functional, cell-based; settings: L1210, 72 h
[3] = target: Tubulin (Sus scrofa) (UniProt P02554+P02550); assay: Displacement of [3H]Vinblastine from pig tubulin at 7.2 x 10^-5 M after 60 mins; format: protein assay
[4] = system: HCT-116/VM46; assay: Cytotoxicity against human vinblastine-resistant HCT116/VM46 cells assessed as growth inhibition after 72 hrs by phosphatase assay; format: functional, cell-based; settings: HCT-116/VM46, 72 h

Chain of Tubulin (Sus scrofa) (P02550 whole entry, looked up): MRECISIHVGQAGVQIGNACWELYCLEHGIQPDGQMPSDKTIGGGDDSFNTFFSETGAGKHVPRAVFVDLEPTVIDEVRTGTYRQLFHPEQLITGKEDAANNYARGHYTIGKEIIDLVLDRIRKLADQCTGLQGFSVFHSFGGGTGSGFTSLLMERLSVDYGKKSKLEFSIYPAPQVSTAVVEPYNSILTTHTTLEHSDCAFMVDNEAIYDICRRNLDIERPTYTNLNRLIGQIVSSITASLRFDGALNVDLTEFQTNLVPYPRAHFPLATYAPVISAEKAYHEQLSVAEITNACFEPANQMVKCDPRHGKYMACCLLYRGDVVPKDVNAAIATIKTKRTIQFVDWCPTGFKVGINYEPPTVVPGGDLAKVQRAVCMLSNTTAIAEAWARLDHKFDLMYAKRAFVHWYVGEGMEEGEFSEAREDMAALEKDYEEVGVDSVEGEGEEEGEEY
Chain of Tubulin (Sus scrofa) (P02554 whole entry, looked up): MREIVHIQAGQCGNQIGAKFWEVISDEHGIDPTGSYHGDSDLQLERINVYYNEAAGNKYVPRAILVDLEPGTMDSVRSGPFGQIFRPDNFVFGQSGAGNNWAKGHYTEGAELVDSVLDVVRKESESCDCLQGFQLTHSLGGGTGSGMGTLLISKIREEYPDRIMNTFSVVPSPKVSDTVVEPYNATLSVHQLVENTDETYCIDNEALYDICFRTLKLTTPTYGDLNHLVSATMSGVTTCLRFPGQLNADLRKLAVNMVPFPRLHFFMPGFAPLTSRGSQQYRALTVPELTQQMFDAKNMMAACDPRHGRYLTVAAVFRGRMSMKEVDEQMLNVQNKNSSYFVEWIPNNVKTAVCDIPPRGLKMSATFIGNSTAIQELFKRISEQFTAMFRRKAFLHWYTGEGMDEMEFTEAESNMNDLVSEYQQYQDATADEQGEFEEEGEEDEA

## CC[C@]1(O)C[C@H]2CN(CCc3c([nH]c4ccccc34)[C@@](C(=O)OC)(c3cc4c(cc3OC)N(C)[C@H]3[C@@](O)(C(=O)OC)[C@H](OC(C)=O)[C@]5(CC)CCN6CCC[C@]43[C@@H]65)C2)C1
[1]
  IC50: 0.0065 µM
[2]
  IC50: 0.0072 µM
[3]
  inhibition: 48.4%
[4]
  IC50: 0.45 µM

## CC[C@]1(O)C[C@H]2CN(CCc3c([nH]c4ccccc34)[C@@](C(=O)OC)(c3cc4c(cc3OC)N(C)[C@@H]3[C@]45CCCN4CCC[C@@](CC)(C[C@]3(O)C(=O)OC)[C@@H]45)C2)C1
[1]
  IC50: 0.08 µM
[2]
  IC50: 0.055 µM
[4]
  IC50: 0.9 µM

## CC[C@]1(O)C[C@H]2CN(CCc3c([nH]c4ccccc34)[C@@](C(=O)OC)(c3cc4c(cc3OC)N(C)[C@@H]3[C@]45CCN4CCC[C@@](CC)(C[C@]3(O)C(=O)OC)[C@H]45)C2)C1
[1]
  IC50: 0.67 µM
[2]
  IC50: 0.66 µM
[4]
  IC50: 4 µM

## CCC1=C[C@H]2CN(CCc3c([nH]c4ccccc34)[C@@](C(=O)OC)(c3cc4c(cc3OC)N(C)[C@H]3[C@@](O)(C(=O)OC)[C@H](OC(C)=O)[C@]5(CC)CCCN6CC[C@]43[C@@H]65)C2)C1
[1]
  IC50: 0.89 µM
[2]
  IC50: 0.74 µM
[4]
  IC50: 3.5 µM

## CC[C@]1(O)C[C@H]2CN(CCc3c([nH]c4ccccc34)[C@@](C(=O)OC)(c3cc4c(cc3OC)N(C)[C@H]3[C@@](O)(C(=O)OC)[C@H](OC(C)=O)[C@]5(CC)CCN6CC[C@]43[C@@H]65)C2)C1
[1]
  IC50: 0.08 µM
[2]
  IC50: 0.56 µM
[4]
  IC50: 7.8 µM

## CC[C@]1(O)C[C@H]2CN(CCc3c([nH]c4ccccc34)[C@@](C(=O)OC)(c3cc4c(cc3OC)N(C)[C@H]3[C@@](O)(C(=O)OC)[C@@H](OC(C)=O)[C@]5(CC)CCN6CCC[C@]43[C@@H]65)C2)C1
[1]
  IC50: 0.68 µM
[2]
  IC50: 0.6 µM
[4]
  IC50: 7.6 µM

## CC[C@]1(O)C[C@H]2CN(CCc3c([nH]c4ccccc34)[C@@](C(=O)OC)(c3cc4c(cc3OC)N(C)[C@@H]3[C@]45CCCN4CC=C[C@@](CC)(C[C@]3(O)C(=O)OC)[C@@H]45)C2)C1
[1]
  IC50: 0.1 µM
[2]
  IC50: 0.065 µM
[4]
  IC50: 0.73 µM

## CC[C@]1(O)C[C@@H]2CN(CCc3c([nH]c4ccccc34)[C@@](C(=O)OC)(c3cc4c(cc3OC)N(C)[C@H]3[C@@](O)(C(=O)OC)[C@H](OC(C)=O)[C@]5(CC)C=CCN6CC[C@]43[C@@H]65)C2)C1
[3]
  inhibition: 50%

## CCC1=C[C@H]2CN(CCc3c([nH]c4ccccc34)[C@@](C(=O)OC)(c3cc4c(cc3OC)N(C)[C@H]3[C@@](O)(C(=O)OC)[C@H](OC(C)=O)[C@]5(CC)CCN6CC[C@]43[C@@H]65)C2)C1
[1]
  IC50: 0.63 µM
[2]
  IC50: 0.7 µM
[4]
  IC50: 7 µM

## CC[C@]1(O)C[C@H]2CN(CCc3c([nH]c4ccccc34)[C@@](C(=O)OC)(c3cc4c(cc3OC)N(C)[C@@H]3[C@]45CCCN4CCC[C@@](CC)(C[C@]3(O)C(=O)OC)[C@H]45)C2)C1
[1]
  IC50: 7.4 µM
[2]
  IC50: 5.7 µM
[4]
  IC50: > 10 µM

## CC[C@]1(O)C[C@H]2CN(CCc3c([nH]c4ccccc34)[C@@](C(=O)OC)(c3cc4c(cc3OC)N(C)[C@@H]3[C@]45CCN4CC=C[C@@](CC)(C[C@]3(O)C(=O)OC)[C@H]45)C2)C1
[1]
  IC50: 0.06 µM
[2]
  IC50: 0.06 µM
[4]
  IC50: 0.66 µM

## CC[C@]1(O)C[C@H]2CN(CCc3c([nH]c4ccccc34)[C@@](C(=O)OC)(c3cc4c(cc3OC)N(C)[C@H]3[C@@](O)(C(=O)OC)[C@@H](OC(C)=O)[C@]5(CC)C=CCN6CC[C@]43[C@@H]65)C2)C1
[1]
  IC50: 0.08 µM
[2]
  IC50: 0.075 µM
[4]
  IC50: 8.4 µM

## CCC1=C[C@@H]2CN(C1)Cc1c([nH]c3ccccc13)[C@@](C(=O)OC)(c1cc3c(cc1OC)N(C)[C@H]1[C@@](O)(C(=O)OC)[C@H](OC(C)=O)[C@]4(CC)C=CCN5CC[C@]31[C@@H]54)C2 [VINORELBINE]
[1]
  IC50: 0.075 µM
[2]
  IC50: 0.065 µM
[4]
  IC50: 0.6 µM

## CC[C@]1(O)C[C@H]2CN(CCc3c([nH]c4ccccc34)[C@@](C(=O)OC)(c3cc4c(cc3OC)N(C)[C@@H]3[C@]45CCCN4CC=C[C@@](CC)(C[C@]3(O)C(=O)OC)[C@H]45)C2)C1
[1]
  IC50: 0.43 µM
[2]
  IC50: 0.37 µM
[3]
  inhibition: 68.5%
[4]
  IC50: 5.7 µM

## CC[C@]1(O)C[C@H]2CN(CCc3c([nH]c4ccccc34)[C@@](C(=O)OC)(c3cc4c(cc3OC)N(C)[C@H]3[C@@](O)(C(=O)OC)[C@H](OC(C)=O)[C@]5(CC)CCCN6CC[C@]43[C@@H]65)C2)C1
[1]
  IC50: 0.37 µM
[2]
  IC50: 0.57 µM
[3]
  inhibition: 77.4%
[4]
  IC50: 4.5 µM

Reference: ChEMBL document CHEMBL2311360 (J Med Chem, 2013)
